Converted amounts (≈) assume the structure as drawn.
How the values were obtained:
[1] = Solubility enhancement of vitamin D3 by PEHAM dendritic polymers (HPLC); type: physicochemical; details: pure Active Material control without dendrimer; detection limit
Method: An excess of the cosmetic and nutrient Active Material, vitamin D3, (Sigma) was added to vials containing PEHAM dendritic polymers G=1.0 and G=2.0 with PETGE or TMPTGE cores and amine surfaces, partially PEGylated (25% PEG-550) amine surfaces, or carboxylate surfaces, dissolved in 20% (v/v) aqueous methanol at 1 wt % concentrations. These suspensions were briefly ultrasonicated in a water bath at RT, then incubated overnight at 32° C. and 100 rpm in a shaking water bath, and allowed to equilibrate at RT. The suspensions were filtered through a 0.2-μm Nylon syringe filter to remove not encapsulated Active Material. Solvent was removed and the residue redispersed in DI water. The samples were analyzed for dendrimer-associated vitamin D3 by HPLC. Association results are expressed in ng Active Material per mL solution. […] The pure Active Material as control remains below detection limit of 50 ng/mL.

[2] = Aqueous solubility of paclitaxel with PEHAM dendritic polymer (HPLC); type: physicochemical; details: DI water without dendrimer, thermodynamic from solid
Method: The sample was subjected to brief ultrasonication and heating at 50° C. for 10 mins., followed by overnight shaking at RT. The sample was then centrifuged for 5 mins. and the paclitaxel content measured by HPLC.

solubility [2]	SMILES	vitamin D3 solubility [1]
	C=C1CC[C@H](O)C/C1=C/C=C1\CCC[C@]2(C)[C@@H]([C@H](C)CCCC(C)C)CC[C@@H]12 [vitamin D3]	< 0.05 µg/mL
0.3 µg/mL (≈ 0.351 µM)	CC(=O)O[C@H]1C(=O)[C@@]2(C)[C@H]([C@H](OC(=O)c3ccccc3)[C@]3(O)C[C@H](OC(=O)[C@H](O)[C@@H](NC(=O)c4ccccc4)c4ccccc4)C(C)=C1C3(C)C)[C@]1(OC(C)=O)CO[C@@H]1C[C@@H]2O [paclitaxel]	

From patent publication US20090324742A1, “Peham dendrimers as excipients” (priority 2006, published 2009)
